According to US20250197374A1, “WEE1 DEGRADING COMPOUNDS AND USES THEREOF” (BRISTOL-MYERS SQUIBB COMPANY, priority 2023, published 2025):
pEC50: −log10 of the molar value. Read-outs that look alike come from different tables or passages of the source.

Tests used:
Format in all cases: cell-based
WEE1 = molecular target: T1, WEE1 (Homo sapiens, UniProt P30291+Q96SW2); assay: WEE1-ePL degradation assay (293T-LentiX, InCELL Hunter luminescence, 4 hr); conditions: for DC50: LentiX-HEK293T cells expressing WEE1-ePL, 4 hr incubation, read-out: 293T-LentiX WEE1-ePL Degradation 4 hr EC50; for 293T-LentiX WEE1-ePL Degradation 4 hr YMin (%): lower limit of fit, % of DMSO control signal remaining
T1 construct: C-terminal ePL-tagged (DiscoverX, Fremont, CA) full-length WEE1 expression construct; expressed in transfected cells; host or cells: LentiX-HEK293T (Invitrogen), lentivirally transduced; the cells also over-express GSPT1-GN
Source text: To generate LentiX-WEE1-ePL-GSPT1-ND cells for the WEE1 degradation assay, LentiX-HEK293T (Invitrogen) were tranduced by lentivirus with a C-terminal ePL-tagged (DiscoverX, Fremont, CA) full-length WEE1 expression construct. A separate lentiviral construct was introduced to over-express a mutated form of GSPT1 (NP_002085), termed GSPT1-GN, which contains a G575N mutation and is further truncated in the first 158 amino acids. GSPT1-GN is functional but not degradable by Cereblon. Cells were selected and maintained in complete DMEM media (DMEM, 10% Heat Inactivated FBS, 400 μg/mL Geneticin, and 1 μg/mL puromycin at 37 C and 5% CO2). Cells were passaged every 3-4 days by reseeding 1×10^6 cells in a T150 flask.
Cells were dispensed into 384-well white plates (Corning #3570, NY) that were pre-spotted with compounds using an acoustic dispenser (Echo acoustic transfer system, Beckman Coulter Life Sciences, Carlsbad, CA) as a 10-point dose-response curve with a 3-fold dilution starting at either 1 uM or 10 uM and including a DMSO control. Twenty-five microliters of media containing 2500 cells for LentiX-oeWEE1-ePL was dispensed per well. Assay plates were incubated at 37° C. with 5% CO2 for four hours (WEE1) After incubation, 25 μL of the InCELL Hunter™ Detection Reagent Working Solution (DiscoverX, Fremont, CA) was added to each well and incubated at room temperature for 30 minutes protected from light. After 30 minutes, luminescence was read on a PHERAstar luminometer (Cary, NC).
To determine the half-maximal effective concentration (EC50) values for WEE1-ePL degradation, a four parameter logistic model was used: (Sigmoidal Dose-Response Model) (FIT=(A+((B−A)/1+((C/x)^D)))) where C is the inflection point (EC50), D is the Hill slope, and A and B are the low and high limits of the fit respectively). The lower limit of the fit (value A) is referred to as Ymin. […] The maximum limit constraint, Ymax, is similarly derived using DMSO control. The curves were processed and evaluated using Activity Base (IDBS, Alameda, CA) or using Dotmatics (Boston, MA).

MKN45 cells = assay: MKN45 cell proliferation assay (Cell-Titer-Glo, 120 hr); conditions: for pEC50: read-out: MKN45 Cell Prolif. 120 hr EC50; for MKN45 Cell Prolif. 120 hr YMin (%): minimal percent of DMSO control observed
Source text: (§1) MKN45 cells were obtained from Celgene internal cell banks and cultured in RPMI complete media (RPMI-1640, 1× Penicillin/Streptomycin, 1× glutamine, 1× Sodium Pyruvate, Non-essential Amino Acids, 10% Fetal Bovine serum, all component from Thermo-Fisher). MDA-MB-231 cells were obtained from the ATCC (HTB-26) and cultured in RPMI-1640 and 10% Fetal Bovine serum; MDA-MB-231 cells were expanded and stored as aliquots in liquid nitrogen in Celgene internal cell banks. Compounds were dispensed into 384-well plates using an HP DE300 compound printer in triplicate with 8 compounds on each plate. Compounds were dispensed into 384-well black clear bottom plates (Corning #3764BC) using an EDC acoustic dispenser at BMS. For each compound, a 10-point dose response was printed at half-log dilutions starting at either 1 uM or 10 uM in triplicate for MKN45 cells and in duplicate for MDA-MB-231 cells. The DMSO concentration was kept constant for a final assay concentration of 0.1% per well assuming 50 ul final media volume. Compound plates were sealed and frozen at −20 C until use.
(§2) For each assay batch, compound plates were thawed and allowed to reach room temperature, and cells were seeded at 400 MKN45 cells per well, or 800 MDA-MB-231 cells per well, in 50 ul media listed above for each cell line. After 120 hours of incubation at 37 C and 5% CO2, cells were lysed by addition of 25 μL of Cell-Titer-Glo Reagent (Promega Corporation, Madison, WI), as per manufacturer's instructions, protected from light, shaken for 45 minutes, and total luminescence read by a Perkin Elmer Envision plate reader. Total luminescence signal is linearly correlated with cell number remaining in the well.
(§3) Luminescence data was processed per plate by subtracting reagent-only “blank” well luminescence from all measured values and calculating a percent of DMSO control value for each treatment well. Then, to determine the half-maximal effective concentration (EC50) values for cell growth inhibition, a four parameter logistic model was fit to the data for each DMSO-normalized compound: Sigmoidal Dose-Response Model: (FIT=(A+((B−A)/1+((C/x)^D)))) where C is the inflection point ([…]), D is the Hill slope, and A and B are the low and high limits of the fit respectively. The lower limit of the fit (value A) is referred to as Ymin-calculated. The minimal percent of DMSO control that is observed in the concentrations tested for each compound is labeled as “Ymin-obs”, and was recorded and reported in the tables. Sigmoidal fit curves were processed and evaluated using Activity Base (IDBS, Alameda, CA) or using Dotmatics (Boston, MA). N/A=not available at the present time.

MDA-MB-231 cells = assay: MDA-MB-231 cell proliferation assay (Cell-Titer-Glo, 120 hr); conditions: for pEC50: read-out: MDA-MB 231 Cell Prolif. 120 hr EC50; for MDA-MB 231 Cell Prolif. 120 hr YMin (%): minimal percent of DMSO control observed
Source text: as §1, §2, §3

[1] = Homo sapiens, MDA-MB-231, 120 h

T1 sequence (P30291 whole entry): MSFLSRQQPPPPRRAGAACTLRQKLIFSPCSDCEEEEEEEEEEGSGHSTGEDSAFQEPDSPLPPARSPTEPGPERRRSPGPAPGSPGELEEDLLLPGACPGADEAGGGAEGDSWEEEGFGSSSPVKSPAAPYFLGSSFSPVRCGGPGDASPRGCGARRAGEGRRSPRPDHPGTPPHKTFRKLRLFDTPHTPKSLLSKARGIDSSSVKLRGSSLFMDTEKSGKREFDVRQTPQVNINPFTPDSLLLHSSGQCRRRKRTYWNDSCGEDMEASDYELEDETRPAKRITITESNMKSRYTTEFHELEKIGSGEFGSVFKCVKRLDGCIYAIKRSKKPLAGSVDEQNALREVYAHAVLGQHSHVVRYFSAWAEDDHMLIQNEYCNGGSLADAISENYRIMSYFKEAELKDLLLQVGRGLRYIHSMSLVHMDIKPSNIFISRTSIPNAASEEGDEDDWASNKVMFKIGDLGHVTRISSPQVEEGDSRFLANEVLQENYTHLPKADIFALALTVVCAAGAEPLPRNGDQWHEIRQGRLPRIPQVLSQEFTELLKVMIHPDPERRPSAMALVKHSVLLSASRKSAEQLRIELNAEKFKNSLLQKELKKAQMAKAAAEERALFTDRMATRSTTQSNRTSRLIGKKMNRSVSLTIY
T1 sequence (Q96SW2 whole entry): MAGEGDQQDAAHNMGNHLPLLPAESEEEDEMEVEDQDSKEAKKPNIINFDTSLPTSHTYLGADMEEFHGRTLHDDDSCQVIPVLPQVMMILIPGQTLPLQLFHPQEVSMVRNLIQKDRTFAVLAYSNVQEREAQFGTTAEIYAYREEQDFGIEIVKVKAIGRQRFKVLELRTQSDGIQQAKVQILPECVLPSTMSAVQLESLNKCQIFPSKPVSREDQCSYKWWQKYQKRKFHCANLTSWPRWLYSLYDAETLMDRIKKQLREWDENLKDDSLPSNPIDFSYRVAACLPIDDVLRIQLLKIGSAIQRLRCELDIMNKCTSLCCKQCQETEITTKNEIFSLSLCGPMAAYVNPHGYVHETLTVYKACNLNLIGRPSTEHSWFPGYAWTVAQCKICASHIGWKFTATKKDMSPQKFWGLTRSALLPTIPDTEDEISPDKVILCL
T1 sequence (Q16531 whole entry partner): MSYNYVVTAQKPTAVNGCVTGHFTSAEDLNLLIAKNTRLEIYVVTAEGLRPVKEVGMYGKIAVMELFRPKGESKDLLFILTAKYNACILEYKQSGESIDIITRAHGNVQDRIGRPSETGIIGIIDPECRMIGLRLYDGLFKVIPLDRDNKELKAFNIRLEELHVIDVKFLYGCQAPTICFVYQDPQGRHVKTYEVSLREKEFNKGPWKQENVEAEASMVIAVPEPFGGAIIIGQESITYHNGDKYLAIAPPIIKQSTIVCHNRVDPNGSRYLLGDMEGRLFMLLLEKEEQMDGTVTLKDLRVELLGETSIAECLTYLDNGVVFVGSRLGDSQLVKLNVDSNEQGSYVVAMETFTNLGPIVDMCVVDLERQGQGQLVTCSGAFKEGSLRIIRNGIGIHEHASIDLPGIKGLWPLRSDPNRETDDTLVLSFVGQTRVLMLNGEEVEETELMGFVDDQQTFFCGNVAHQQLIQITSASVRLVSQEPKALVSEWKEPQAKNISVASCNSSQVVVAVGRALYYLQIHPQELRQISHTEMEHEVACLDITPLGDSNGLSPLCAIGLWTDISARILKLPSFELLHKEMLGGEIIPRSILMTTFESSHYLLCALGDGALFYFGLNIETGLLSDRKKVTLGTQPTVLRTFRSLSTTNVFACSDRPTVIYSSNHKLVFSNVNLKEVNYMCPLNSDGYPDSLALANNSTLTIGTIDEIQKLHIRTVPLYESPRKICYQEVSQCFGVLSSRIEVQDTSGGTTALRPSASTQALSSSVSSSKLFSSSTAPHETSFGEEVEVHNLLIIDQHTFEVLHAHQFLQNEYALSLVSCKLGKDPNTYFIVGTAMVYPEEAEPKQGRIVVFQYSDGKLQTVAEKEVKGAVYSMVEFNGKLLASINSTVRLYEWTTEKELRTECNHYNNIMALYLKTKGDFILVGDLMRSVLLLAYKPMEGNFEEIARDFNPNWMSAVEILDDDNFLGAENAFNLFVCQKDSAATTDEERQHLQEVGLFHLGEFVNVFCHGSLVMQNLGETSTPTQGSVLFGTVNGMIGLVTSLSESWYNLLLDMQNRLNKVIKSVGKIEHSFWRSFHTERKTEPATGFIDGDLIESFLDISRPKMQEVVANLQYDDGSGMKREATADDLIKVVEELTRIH

| Structure (SMILES) | DC50 (WEE1) [nM] | 293T-LentiX WEE1-ePL Degradation 4 hr YMin (%) (WEE1) | pEC50 (MKN45 cells; Homo sapiens, MKN-45, 120 h) | MKN45 Cell Prolif. 120 hr YMin (%) (MKN45 cells) | pEC50 (MDA-MB-231 cells; [1]) | MDA-MB 231 Cell Prolif. 120 hr YMin (%) (MDA-MB-231 cells) | pEC50 (MKN45 cells) | pEC50 (MDA-MB-231 cells) |
| --- | --- | --- | --- | --- | --- | --- | --- | --- |
| COC[C@@H]1CN(Cc2cc(F)c3nc(C4CCCO4)ncc3c2)C[C@H]1Oc1ccc2c(c1)CN([C@H]1CCC(=O)NC1=O)C2=O (mixture of isomers) [Example 76, rel-(3S)-3-(5-{[(3S,4S)-1-{[8-fluoro-2-(oxolan-2-yl)quinazolin-6-yl]methyl}-4-(methoxymethyl)pyrrolidin-3-yl]oxy}-1-oxo-2,3-dihydro-1H-isoindol-2-yl)piperidine-2,6-dione] | 41 | 25.5 | 7.96 | 9.4 | 7.00 | 17.9 | – | – |
| CC(C)(O)[C@@H]1CN(Cc2ccc3nc(C4CCOCC4)ccc3c2)C[C@H]1Oc1ccc2c(c1)CN([C@H]1CCC(=O)NC1=O)C2=O (racemic) [Example 137, rel-(3S)-3-(5-((4-(2-hydroxypropan-2-yl)-1-((2-(tetrahydro-2H-pyran-4-yl)quinolin-6-yl)methyl)pyrrolidin-3-yl)oxy)-1-oxoisoindolin-2-yl)piperidine-2,6-dione] | 12 | 40.9 | 6.63 | 70.6 | 7.21 | 77.3 | – | – |
| O=C1CCC(N2C(=O)c3ccc(O[C@H]4CCN(Cc5ccc6nc(N7CCOCC7)ncc6c5)C4)cc3C2=O)C(=O)N1 (single isomer, unassigned) [Example 12, 2-((S*)-2,6-dioxopiperidin-3-yl)-5-(((S)-1-((2-morpholino-quinazolin-6-yl)methyl)pyrrolidin-3-yl)oxy)isoindoline-1,3-dione] | – | – | 6.47 | 40.6 | 5.57 | 79.6 | – | – |
| O=C1CCC(N2C(=O)c3ccc(O[C@H]4CCN(Cc5ccc6nc(N7CCOCC7)ncc6c5)C4)cc3C2=O)C(=O)N1 (single isomer, unassigned) [Example 27, 2-((R*)-2,6-dioxopiperidin-3-yl)-5-(((S)-1-((2-morpholino-quinazolin-6-yl)methyl)pyrrolidin-3-yl)oxy)isoindoline-1,3-dione] | – | – | – | 29.1 | – | 81.8 | 6.69 | 5.52 |
| COC[C@@H]1CN(Cc2ccc3nc(N4CCN(C(C)=O)C5(COC5)C4)ncc3c2)C[C@H]1Oc1ccc2c(c1)CN([C@H]1CCC(=O)NC1=O)C2=O [Example 95, (3S)-3-(5-{[(3S,4S)-1-[(2-{5-acetyl-2-oxa-5,8-diazaspiro[3.5]nonan-8-yl}quinazolin-6-yl)methyl]-4-(methoxymethyl)pyrrolidin-3-yl]oxy}-1-oxo-2,3-dihydro-1H-isoindol-2-yl)piperidine-2,6-dione] | 2 | 20.9 | – | – | – | – | – | – |
| COC[C@@H]1CN(Cc2cc(F)c3nc(C)c(N4CCOCC4)cc3c2)C[C@H]1Oc1ccc2c(c1)CN([C@H]1CCC(=O)NC1=O)C2=O [Example 100, (3S)-3-(5-{[(3S,4S)-1-{[8-fluoro-2-methyl-3-(morpholin-4-yl)quinolin-6-yl]methyl}-4-(methoxymethyl)pyrrolidin-3-yl]oxy}-1-oxo-2,3-dihydro-1H-isoindol-2-yl)piperidine-2,6-dione] | 1 | 24.6 | – | – | – | – | – | – |
| COC[C@@H]1CN(Cc2ccc3cc(N4CCOCC4)cnc3c2F)C[C@H]1Oc1ccc2c(c1)CN([C@H]1CCC(=O)NC1=O)C2=O [Example 101, (3S)-3-(5-{[(3S,4S)-1-{[8-fluoro-3-(morpholin-4-yl)quinolin-7-yl]methyl}-4-(methoxymethyl)pyrrolidin-3-yl]oxy}-1-oxo-2,3-dihydro-1H-isoindol-2-yl)piperidine-2,6-dione] | 3 | 33.0 | – | – | – | – | – | – |
| COC[C@@H]1CN(Cc2cc3ccc(N4CCN(C(C)=O)CC4)cc3c(F)n2)C[C@H]1Oc1ccc2c(c1)CN([C@H]1CCC(=O)NC1=O)C2=O [Example 124, (3S)-3-(5-{[(3S,4S)-1-{[7-(4-acetylpiperazin-1-yl)-1-fluoroisoquinolin-3-yl]methyl}-4-(methoxymethyl)pyrrolidin-3-yl]oxy}-1-oxo-2,3-dihydro-1H-isoindol-2-yl)piperidine-2,6-dione] | – | 25.4 | – | – | – | – | – | – |
| O=C1CC[C@H](N2Cc3cc(O[C@@H]4CN(Cc5cc(F)c6nc(C7CCOCC7)ccc6c5)C[C@H]4OCC4CC4)ccc3C2=O)C(=O)N1 [Example 125, (3S)-3-(5-{[(3R,4R)-4-(cyclopropyl-methoxy)-1-{[8-fluoro-2-(oxan-4-yl)quinolin-6-yl]methyl}pyrrolidin-3-yl]oxy}-1-oxo-2,3-dihydro-1H-isoindol-2-yl)piperidine-2,6-dione] | 4 | 29.2 | – | – | – | – | – | – |
| CC(C)O[C@@H]1CN(Cc2cc(F)c3nc(C4CCOCC4)ccc3c2)C[C@H]1Oc1ccc2c(c1)CN([C@H]1CCC(=O)NC1=O)C2=O [Example 132, (3S)-3-(5-{[(3R,4R)-1-{[8-fluoro-2-(oxan-4-yl)quinolin-6-yl]methyl}-4-(propan-2-yloxy)pyrrolidin-3-yl]oxy}-1-oxo-2,3-dihydro-1H-isoindol-2-yl)piperidine-2,6-dione] | 5 | 44.9 | – | – | – | – | – | – |
| COC[C@@H]1CN(Cc2cc(F)c3nc(C4CCN(C5COC5)CC4)ncc3c2)C[C@H]1Oc1ccc2c(c1)CN([C@H]1CCC(=O)NC1=O)C2=O [Example 144, (3S)-3-(5-{[(3S,4S)-1-({8-fluoro-2-[1-(oxetan-3-yl)piperidin-4-yl]quinazolin-6-yl}methyl)-4-(methoxymethyl)pyrrolidin-3-yl]oxy}-1-oxo-2,3-dihydro-1H-isoindol-2-yl)piperidine-2,6-dione] | 3 | 21.4 | – | – | – | – | – | – |
